The source of these data is patent publication US12528811B2, “Substituted cyclopenta[2,1-b:5,1-b’]dipyrroles as Janus kinase (JAK) inhibitors” (UNIVERSITÄT BERN, priority 2019, dated 2026).

Holding throughout (type): biochemical
The target of assay [1] is T1, JAK3 (Homo sapiens, UniProt P52333).
T1 sequence (P52333 1-1124): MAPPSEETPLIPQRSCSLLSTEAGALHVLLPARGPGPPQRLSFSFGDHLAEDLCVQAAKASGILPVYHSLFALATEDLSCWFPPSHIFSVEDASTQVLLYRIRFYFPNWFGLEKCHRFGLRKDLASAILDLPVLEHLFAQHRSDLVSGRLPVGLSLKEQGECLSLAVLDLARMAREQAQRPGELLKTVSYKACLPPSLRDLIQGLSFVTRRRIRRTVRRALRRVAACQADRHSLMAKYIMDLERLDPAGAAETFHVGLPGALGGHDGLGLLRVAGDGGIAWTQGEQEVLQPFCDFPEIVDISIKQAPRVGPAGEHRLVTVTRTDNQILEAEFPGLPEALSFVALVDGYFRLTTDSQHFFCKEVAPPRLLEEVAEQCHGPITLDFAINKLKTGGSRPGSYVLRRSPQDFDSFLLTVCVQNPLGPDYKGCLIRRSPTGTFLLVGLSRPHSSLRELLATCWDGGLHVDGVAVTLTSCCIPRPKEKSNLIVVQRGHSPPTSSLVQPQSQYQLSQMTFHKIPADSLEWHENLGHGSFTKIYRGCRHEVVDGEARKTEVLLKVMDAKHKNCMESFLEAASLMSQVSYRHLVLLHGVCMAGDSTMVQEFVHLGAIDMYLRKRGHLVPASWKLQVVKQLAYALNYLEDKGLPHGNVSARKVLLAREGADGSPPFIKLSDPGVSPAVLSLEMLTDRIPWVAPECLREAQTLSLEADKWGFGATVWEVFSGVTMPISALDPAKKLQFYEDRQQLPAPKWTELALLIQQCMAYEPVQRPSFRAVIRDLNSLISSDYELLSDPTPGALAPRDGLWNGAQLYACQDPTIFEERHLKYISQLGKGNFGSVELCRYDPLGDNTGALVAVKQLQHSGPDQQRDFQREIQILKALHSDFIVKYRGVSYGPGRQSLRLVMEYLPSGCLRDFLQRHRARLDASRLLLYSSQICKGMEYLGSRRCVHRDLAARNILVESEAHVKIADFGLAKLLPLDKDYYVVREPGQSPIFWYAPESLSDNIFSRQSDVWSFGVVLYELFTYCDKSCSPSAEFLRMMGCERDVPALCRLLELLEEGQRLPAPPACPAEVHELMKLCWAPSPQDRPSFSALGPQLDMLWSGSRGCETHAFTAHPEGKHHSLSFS
The assay is described as follows: JAK3 enzymatic kinase inhibition assay. Conditions: read-out: Kinase inhibitory activities given in IC50 (nM), JAK3.

The target in assay [2] is JAK2 (Homo sapiens, UniProt O60674). The assay is described as follows: JAK2 enzymatic kinase inhibition assay. Conditions: read-out: Kinase inhibitory activities given in IC50 (nM), JAK2.
JAK2, sequence (O60674 whole entry): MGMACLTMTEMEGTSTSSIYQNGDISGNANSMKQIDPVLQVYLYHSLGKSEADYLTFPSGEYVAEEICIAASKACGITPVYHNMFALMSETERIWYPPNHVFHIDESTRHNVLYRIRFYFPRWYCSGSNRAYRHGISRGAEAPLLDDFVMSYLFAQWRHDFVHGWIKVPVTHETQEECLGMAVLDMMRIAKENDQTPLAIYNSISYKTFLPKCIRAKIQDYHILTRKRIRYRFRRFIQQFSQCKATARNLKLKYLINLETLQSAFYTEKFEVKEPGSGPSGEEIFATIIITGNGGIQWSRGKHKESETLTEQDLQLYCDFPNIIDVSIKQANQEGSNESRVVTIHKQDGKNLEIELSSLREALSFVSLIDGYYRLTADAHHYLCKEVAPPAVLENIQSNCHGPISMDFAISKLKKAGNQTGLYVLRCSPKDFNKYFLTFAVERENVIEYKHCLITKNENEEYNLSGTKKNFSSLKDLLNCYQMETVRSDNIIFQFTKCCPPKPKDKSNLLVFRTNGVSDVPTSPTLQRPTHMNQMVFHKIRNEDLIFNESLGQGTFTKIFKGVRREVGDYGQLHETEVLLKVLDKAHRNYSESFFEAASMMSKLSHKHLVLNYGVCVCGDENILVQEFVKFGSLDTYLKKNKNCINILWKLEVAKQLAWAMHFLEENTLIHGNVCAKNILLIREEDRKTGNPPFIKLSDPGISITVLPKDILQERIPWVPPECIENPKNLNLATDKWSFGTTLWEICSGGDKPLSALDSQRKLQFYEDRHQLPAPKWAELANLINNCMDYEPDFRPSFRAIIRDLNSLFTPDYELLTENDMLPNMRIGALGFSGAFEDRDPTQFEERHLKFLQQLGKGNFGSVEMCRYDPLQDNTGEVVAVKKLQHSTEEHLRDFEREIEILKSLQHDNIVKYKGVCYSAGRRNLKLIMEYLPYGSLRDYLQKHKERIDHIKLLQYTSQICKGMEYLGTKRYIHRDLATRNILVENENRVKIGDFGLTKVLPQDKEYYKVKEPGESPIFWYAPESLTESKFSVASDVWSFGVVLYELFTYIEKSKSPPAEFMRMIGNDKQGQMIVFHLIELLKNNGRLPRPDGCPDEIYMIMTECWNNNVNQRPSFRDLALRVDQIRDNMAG
In assay [3] the target is JAK1 (Homo sapiens, UniProt P23458). Description: JAK1 enzymatic kinase inhibition assay. Conditions: read-out: Kinase inhibitory activities given in IC50 (nM), JAK1.
JAK1, sequence (P23458 whole entry): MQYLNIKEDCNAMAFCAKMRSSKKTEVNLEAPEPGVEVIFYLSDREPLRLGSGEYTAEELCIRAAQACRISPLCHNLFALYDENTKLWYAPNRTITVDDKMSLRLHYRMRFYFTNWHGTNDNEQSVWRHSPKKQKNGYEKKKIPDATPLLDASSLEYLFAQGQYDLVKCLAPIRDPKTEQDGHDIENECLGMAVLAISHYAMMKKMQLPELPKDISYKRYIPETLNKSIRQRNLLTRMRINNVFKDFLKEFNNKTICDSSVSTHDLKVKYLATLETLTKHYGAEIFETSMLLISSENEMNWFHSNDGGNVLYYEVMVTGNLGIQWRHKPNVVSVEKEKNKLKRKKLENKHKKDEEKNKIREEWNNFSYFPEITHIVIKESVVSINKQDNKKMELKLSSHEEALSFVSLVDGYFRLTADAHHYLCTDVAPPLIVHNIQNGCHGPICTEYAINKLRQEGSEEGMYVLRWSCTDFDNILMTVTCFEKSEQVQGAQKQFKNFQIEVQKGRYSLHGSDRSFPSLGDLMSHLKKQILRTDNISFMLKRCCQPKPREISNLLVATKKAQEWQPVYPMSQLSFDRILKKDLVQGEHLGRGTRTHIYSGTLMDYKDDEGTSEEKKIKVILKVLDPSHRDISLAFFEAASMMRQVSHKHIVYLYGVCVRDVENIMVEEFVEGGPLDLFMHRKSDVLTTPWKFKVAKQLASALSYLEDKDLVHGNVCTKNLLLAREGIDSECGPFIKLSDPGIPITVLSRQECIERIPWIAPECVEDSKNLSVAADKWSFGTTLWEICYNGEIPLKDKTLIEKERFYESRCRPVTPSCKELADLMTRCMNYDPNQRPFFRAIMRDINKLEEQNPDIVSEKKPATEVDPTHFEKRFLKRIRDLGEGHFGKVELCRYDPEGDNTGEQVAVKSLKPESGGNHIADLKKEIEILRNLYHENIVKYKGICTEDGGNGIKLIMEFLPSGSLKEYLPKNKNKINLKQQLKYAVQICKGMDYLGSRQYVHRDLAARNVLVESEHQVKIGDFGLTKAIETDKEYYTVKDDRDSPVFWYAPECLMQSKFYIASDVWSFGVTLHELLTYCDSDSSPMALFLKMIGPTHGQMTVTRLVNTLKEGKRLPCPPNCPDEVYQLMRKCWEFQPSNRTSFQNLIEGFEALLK
Assay [4] has as its target TYK2 (Homo sapiens, UniProt P29597). The assay is described as follows: TYK2 enzymatic kinase inhibition assay. The conditions noted are these: read-out: Kinase inhibitory activities given in IC50 (nM), TYK2.

Each structure is given as a SMILES string.

TYK2, sequence (P29597 whole entry): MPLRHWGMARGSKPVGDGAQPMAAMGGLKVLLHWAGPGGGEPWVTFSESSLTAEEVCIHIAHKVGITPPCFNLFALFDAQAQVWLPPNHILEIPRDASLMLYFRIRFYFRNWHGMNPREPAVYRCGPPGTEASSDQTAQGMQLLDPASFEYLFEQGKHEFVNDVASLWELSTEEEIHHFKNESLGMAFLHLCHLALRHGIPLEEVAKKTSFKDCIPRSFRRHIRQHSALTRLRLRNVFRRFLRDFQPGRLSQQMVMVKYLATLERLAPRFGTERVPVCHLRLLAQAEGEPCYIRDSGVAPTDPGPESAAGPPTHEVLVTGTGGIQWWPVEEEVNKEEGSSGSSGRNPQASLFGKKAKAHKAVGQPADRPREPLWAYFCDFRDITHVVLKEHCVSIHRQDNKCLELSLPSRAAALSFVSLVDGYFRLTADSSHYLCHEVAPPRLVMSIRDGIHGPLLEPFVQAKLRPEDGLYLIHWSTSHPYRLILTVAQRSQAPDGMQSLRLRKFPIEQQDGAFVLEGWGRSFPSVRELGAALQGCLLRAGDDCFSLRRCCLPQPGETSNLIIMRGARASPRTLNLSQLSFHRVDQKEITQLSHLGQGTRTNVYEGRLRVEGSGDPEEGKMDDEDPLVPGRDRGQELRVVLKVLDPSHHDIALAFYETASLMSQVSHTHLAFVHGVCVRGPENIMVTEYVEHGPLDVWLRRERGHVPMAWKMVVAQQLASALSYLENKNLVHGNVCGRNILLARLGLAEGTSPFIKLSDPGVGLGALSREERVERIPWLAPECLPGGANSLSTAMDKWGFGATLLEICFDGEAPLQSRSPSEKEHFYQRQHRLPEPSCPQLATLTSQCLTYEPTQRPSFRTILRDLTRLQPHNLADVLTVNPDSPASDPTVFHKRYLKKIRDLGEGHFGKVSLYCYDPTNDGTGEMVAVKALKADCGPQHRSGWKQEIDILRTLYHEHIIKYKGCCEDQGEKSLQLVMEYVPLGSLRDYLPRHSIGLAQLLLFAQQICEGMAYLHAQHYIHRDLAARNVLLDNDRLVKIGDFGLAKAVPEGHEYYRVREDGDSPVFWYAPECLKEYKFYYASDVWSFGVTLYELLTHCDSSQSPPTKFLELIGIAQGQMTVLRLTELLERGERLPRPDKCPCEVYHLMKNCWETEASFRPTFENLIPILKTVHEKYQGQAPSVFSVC

Turning to `C=CC(=O)N1CCC23CCN(c4ncnc5[nH]ccc45)C2CCC13` (centres unmarked) [KMC423, 1-(6-(7H-pyrrolo[2,3-d]pyrimidin-4-yl)octahydrocyclopenta[2,1-b:5,1-b′]dipyrrol-3(3aH)-yl)prop-2-en-1-one], the concentration for half-maximal inhibition (IC50) – broadly, the concentration at which inhibition is half-maximal – in assay [1] came out at 9 nM; in assay [2], 53 nM; in assay [3], 30 nM; in assay [4], 183 nM.
In the case of `N#CCC(=O)N1CCC23CCN(c4ncnc5[nH]ccc45)C2CCC13` (centres unmarked) [KMC420, 3-(6-(7H-pyrrolo[2,3-d]pyrimidin-4-yl)octahydrocyclopenta[2,1-b:5,1-b′]dipyrrol-3(3aH)-yl)-3-oxopropanenitrile], the IC50 in assay [1] amounted to 29 nM; in assay [2], 13 nM; in assay [3], 1 nM; in assay [4] it was 26 nM.
